Values of other authors as cited in patent US20170342372A1, “CELL CULTURE MEDIA” (MERCK PATENT GMBH, priority 2014, published 2017).

Details: water / aqueous solvents

solubility in water (in words)	SMILES
moderate solubility	CC(C)[C@H](N)C(=O)O [valine]
poorly soluble	N[C@@H](CSSC[C@H](N)C(=O)O)C(=O)O [cystine]
moderate solubility	CC(C)C[C@H](N)C(=O)O [leucine]
moderate solubility	CC[C@H](C)[C@H](N)C(=O)O [isoleucine]
